Laboratory results published in patent US20250345345A1, “METHODS FOR THE TREATMENT OF NEUROLOGICAL DISORDERS” (Praxis Precision Medicines, Inc., priority 2022, published 2025).

Tests used:
[1] = system: PTZ-evoked seizures in CD-1 male mice; assay: PTZ acute seizure model, combination of Compound 1 with Compound A (Example 2); type: in vivo; details: 30 minutes before PTZ 120 mg/kg s.c., n=12
Method: The combination of Compound 1 with Compound A for the treatment of seizures was investigated using a PTZ acute seizure model. Accordingly, the effect on PTZ-evoked seizures was evaluated for a vehicle control, Compound A alone, Compound 1 alone, and a combination of Compound 1 and Compound A.
Six-week old CD-1 male mice (25-35 g) were used in the following experiment. Study groups (n=12 for each group) were as follows: • (1) 35% 2-hydroxypropyl-beta-cyclodextrin (HPBCD), the vehicle for Compound 1 and Compound A (10 ml/kg, p.o.); • (2) Compound A (1 mg/kg, p.o.); • (3) Compound A (3 mg/kg, p.o.); • (4) Compound A (6 mg/kg, p.o.); • (5) Compound A (10 mg/kg, p.o); • (6) Compound 1 (10 mg/kg, p.o.); and • (7) Compound A (1 mg/kg, p.o.) and Compound 1 (10 mg/kg, p.o.).
In each instance, 30 minutes after administration of the vehicle or compound(s), PTZ was administered at 120 mg/kg, s.c., 10 ml/kg.
Dosing solutions were made from stock solutions of the highest dose and diluted down for the lower doses. All solutions were protected from light and made fresh daily for two experiment days. […]
Latency and total numbers of clonic/tonic seizures were recorded for 30 minutes, and latency to death was also recorded up to 30 minutes. […] The latency and number of seizures for each mouse was recorded by an individual blinded to the treatment. […]

[2] = evening versus morning administration; as disclosed in WO 2022/232104; cited from earlier work
[3] = evening versus morning dosing; Khodadoustan et al. 2017; cited from earlier work

## COC[C@@]1(O)CC[C@@]2(C)[C@@H](CC[C@@H]3[C@@H]2CC[C@]2(C)[C@@H](C(=O)Cn4ccnc4)CC[C@@H]32)C1 [Compound 1, 3α-Hydroxy-3β-methoxymethyl-21-(1′-imidazolyl)-5α-pregnan-20-one]
[1]; Compound 1 10 mg/kg p.o. alone, n.s. versus combination
  seizure-free mice of the twelve mice: 3
[2]
  maximum observed plasma concentration (Cmax), evening compared to morning administration: reduces
  overall drug exposure (AUCinf), evening compared to morning administration: similar
  time to maximum plasma concentration (tmax), evening compared to morning administration: increases

## CCOC(F)(F)c1nnc2ccc(-c3cnc(OCC(F)(F)F)c(F)c3)cn12 [Compound A]
[1]; Compound A 1 mg/kg p.o. alone, p<0.01 versus combination
  seizure-free mice of the twelve mice: none

## CCOC(=O)C1=C(COCCN)NC(C)=C(C(=O)OC)C1c1ccccc1Cl (stereo not shown) [amlodipine besylate]
[3]
  Cmax, evening administration compared to morning dosing: increased
  Tmax, evening administration compared to morning dosing: reduced
